Assay results: US20210196720A1 (UROVANT SCIENCES GMBH, priority 2018, published 2021)
Where two headings read alike, the source gives them in different places.

Assays:
Type in all cases: in vivo, human
[1] = Phase 2b OAB study, cardiovascular safety (HR, SBP, DBP, orthostatic AEs)
Source text: None led to discontinuation. The overall incidence of orthostatic symptoms was low.
Small differences in the percent of subjects exceeding categorical heart rate and blood pressure thresholds for vibegron were similar to those in the tolterodine arm.

[2] = Moderate hepatic impairment PK, single 100 mg; settings: for half-life: read-out: Apparent terminal t1/2 (converted)
[3] = Single rising oral dose Phase 1 PK, healthy adults (young males unless stated); settings: human, plasma, oral; for AUC(0-t): read-out: AUC0-24; for half-life: read-out: t1/2 (converted)
Method: The steady state AUC geometric mean accumulation ratios were ˜2 in young male subjects and ˜2.8 in elderly subjects (male and female).
All subjects were healthy adults. […] Systemic exposures were greater than dose proportional up to 600 mg.
Although exposures were similar in middle-aged males when compared to young males, plasma concentrations were higher in elderly compared to middle-aged and young subjects. […] Furthermore, the steady state AUC geometric mean accumulation ratios were ˜2 in young males and ˜2.8 in the elderly.

[4] = human, plasma, oral, 100 mg, healthy matched controls
[5] = human, plasma, oral, 100 mg, moderate hepatic impairment
[6] = both sexes, 50 mg, single 50 mg, elderly male and female
[7] = male, 10 mg, single 10 mg, Japanese
[8] = male, 50 mg, single 50 mg, Japanese, fasted

**Q.** What does the source list for `O=C(Nc1ccc(C[C@@H]2CC[C@H]([C@H](O)c3ccccc3)N2)cc1)[C@@H]1CCc2nccc(=O)n21` [Vibegron, (6S)-N-[4-[[(2S,5R)-5-[(R)-hydroxy(phenyl)methyl]pyrrolidin-2-yl]methyl]phenyl]-4-oxo-7,8-dihydro-6H-pyrrolo[1,2-a]pyrimidine-6-carboxamide]?
**A.** DBP change from baseline, mean (95% CI) max, week 1 to 8 ([1]; 3 mg): 5.03 (3.92, 6.15) mm Hg; DBP change from baseline, mean (95% CI), week 1 ([1]; 3 mg): −0.37 (−1.69, 0.95) mm Hg; HR change from baseline, mean (95% CI) maximum, week 1 to 8 ([1]; 3 mg): 5.57 (4.25, 6.90) bpm; HR change from baseline, mean (95% CI), week 1 ([1]; 3 mg): 0.36 (−0.90, 1.62) bpm; SBP change from baseline, mean (95% CI) maximum, week 1 to 8 ([1]; 3 mg): 7.14 (5.18, 9.10) mm Hg; SBP change from baseline, mean (95% CI), week 1 ([1]; 3 mg): −0.35 (−2.34, 1.65) mm Hg; DBP change from baseline, mean (95% CI) max, week 1 to 8 ([1]; 15 mg): 6.37 (5.20, 7.53) mm Hg; DBP change from baseline, mean (95% CI), week 1 ([1]; 15 mg): 0.03 (−1.52, 1.59) mm Hg; HR change from baseline, mean (95% CI) maximum, week 1 to 8 ([1]; 15 mg): 6.56 (5.20, 7.92) bpm; HR change from baseline, mean (95% CI), week 1 ([1]; 15 mg): 0.35 (−1.15, 1.85) bpm; SBP change from baseline, mean (95% CI) maximum, week 1 to 8 ([1]; 15 mg): 8.93 (7.18, 10.67) mm Hg; SBP change from baseline, mean (95% CI), week 1 ([1]; 15 mg): −0.34 (−2.46, 1.78) mm Hg; subjects with orthostatic related AEs ([1]; 15 mg): 0.3%; DBP change from baseline, mean (95% CI) max, week 1 to 8 ([1]; 50 mg): 4.19 (3.10, 5.29) mm Hg; DBP change from baseline, mean (95% CI), week 1 ([1]; 50 mg): −0.70 (−2.07, 0.67) mm Hg; HR change from baseline, mean (95% CI) maximum, week 1 to 8 ([1]; 50 mg): 5.49 (4.28, 6.69) bpm; HR change from baseline, mean (95% CI), week 1 ([1]; 50 mg): 0.29 (−0.88, 1.46) bpm; SBP change from baseline, mean (95% CI) maximum, week 1 to 8 ([1]; 50 mg): 7.01 (5.31, 8.70) mm Hg; SBP change from baseline, mean (95% CI), week 1 ([1]; 50 mg): −0.79 (−2.65, 1.08) mm Hg; SBP and DBP change, difference from placebo ([1]; 50 mg and 100 mg, week 1 and maximum over 8 weeks): < 1 mm Hg; DBP change from baseline, mean (95% CI) max, week 1 to 8 ([1]; 100 mg): 4.80 (3.88, 5.72) mm Hg; DBP change from baseline, mean (95% CI), week 1 ([1]; 100 mg): −0.69 (−1.72, 0.34) mm Hg; HR change from baseline, mean (95% CI) maximum, week 1 to 8 ([1]; 100 mg): 6.12 (5.10, 7.15) bpm; HR change from baseline, mean (95% CI), week 1 ([1]; 100 mg): 0.35 (−0.69, 1.38) bpm; SBP change from baseline, mean (95% CI) maximum, week 1 to 8 ([1]; 100 mg): 6.51 (5.09, 7.93) mm Hg; SBP change from baseline, mean (95% CI), week 1 ([1]; 100 mg): −0.77 (−2.22, 0.68) mm Hg; subjects with orthostatic related AEs ([1]; 100 mg): 1.1%; HR mean maximum change over 8 weeks, difference from placebo ([1]; in vivo): < 2 bpm; CL/F ([2]; healthy matched controls): 68.3 L/h; AUC(0-inf) [2, 4]: 1440 ng·h/mL; Cmax [2, 4]: 125 ng/mL; half-life [2, 4]: 3.85 days; AUC(0-inf) [2, 5]: 1820 ng·h/mL; Cmax [2, 5]: 168 ng/mL; Tmax [2, 5]: 1 h; half-life [2, 5]: 3.94 days; CL/F ([2]; moderate hepatic impairment): 56.0 L/h; AUC(0-inf) [3, 6]: 951 ± 300 ng·h/mL; Cmax [3, 6]: 50.2 ± 23.6 ng/mL; AUC(0-t) [3, 6]: 314 ± 119 ng·h/mL; half-life [3, 6]: 3.83 days; Cmax ([3]; male, 2 mg, single 2 mg): 0.28 ± 0.02 ng/mL; AUC(0-t) ([3]; male, 2 mg, single 2 mg): 0.8 ± 0.33 ng·h/mL; Cmax ([3]; male, 5 mg, single 5 mg): 0.79 ± 0.3 ng/mL; AUC(0-t) ([3]; male, 5 mg, single 5 mg): 8.31 ± 4.8 ng·h/mL; AUC(0-inf) ([3]; male, 10 mg, single 10 mg): 70.7 ± 34.9 ng·h/mL; Cmax ([3]; male, 10 mg, single 10 mg): 4.76 ± 4.58 ng/mL; AUC(0-inf) [3, 7]: 98.7 ± 27.3 ng·h/mL; Cmax [3, 7]: 3.34 ± 1.97 ng/mL; AUC(0-t) [3, 7]: 31 ± 9.33 ng·h/mL; half-life [3, 7]: 2.4 ± 1.62 days; AUC(0-t) ([3]; male, 10 mg, single 10 mg): 30 ± 12.6 ng·h/mL; half-life ([3]; male, 10 mg, single 10 mg): 1.8 ± 0.542 days; AUC(0-inf) ([3]; male, 20 mg, single 20 mg): 121 ± 48.9 ng·h/mL; Cmax ([3]; male, 20 mg, single 20 mg): 5.25 ± 4.25 ng/mL; AUC(0-t) ([3]; male, 20 mg, single 20 mg): 40 ± 21.1 ng·h/mL; half-life ([3]; male, 20 mg, single 20 mg): 2.68 ± 0.525 days; AUC(0-inf) [3, 8]: 885 ± 241 ng·h/mL; Cmax [3, 8]: 62.2 ± 20.4 ng/mL; AUC(0-t) [3, 8]: 385 ± 136 ng·h/mL; half-life ([3]; male, 50 mg, single 50 mg, Japanese): 2.68 ± 0.362 days; AUC(0-inf) ([3]; male, 50 mg, single 50 mg, fasted): 551 ± 262 ng·h/mL
